Data reported in patent US9326506B2, “Preparation method, agricultural composition and applications of natural brassinolide analogs” (CHENGDU NEWSUN CROPSCIENCE CO., LTD, priority 2012, dated 2016).

Tested on: rice
Test: Low temperature assay on rice seedlings
Type: in vivo
Method: According to a low temperature assay, we measured parameters including plant height, number of leaf, area of leaf, number of tiller, weight of root at low temperature to completely determine effects of the natural brassinolide analogues on the resistance to low temperature of a plant.
The natural brassinolide analogues, BR1, BR2, BR3, BR4, BR5 and BR6, used herein, were those prepared by the method of Example 1. Respectively the analogues were dissolved into 95% (V/V) ethanol solution, and then diluted with pure water to 1 mg/L, 0.1 mg/L, 0.01 mg/L, 0.001 mg/L and 0.0001 mg/L. In addition, pure water was used as a control.
After rice seeds were disinfected by using 5% sodium hypochlorite solution treatment, they were rinsed with distilled water until their pH>7, placed into a petri dish in a dark incubator, and cultured by using water at 30° C.±2° C. for 9 days. Then respectively the nine-day-old etiolated seedlings of rice were immersed in the above solutions containing different concentrations of the natural brassinolide analogues or pure water, and cultured at the temperature of 1° C., 2° C., 3° C., 4° C. and 5° C. for 24 hr. The parameters including plant height, area of leaf and weight of root after 3, 6, 9 and 12 days and number of leaf and number of tiller after 12 days were measured.

Work on `CC(C)[C@H](C)[C@@H](O)[C@H](O)[C@@H](C)[C@H]1CCC2C3COC(=O)C4C[C@H](O)[C@H](O)C[C@]4(C)C3CC[C@@]21C` (stereo partly drawn) [BR1] yielded an Area of leaf (0.0001 mg/l, 1 °C, 3 days) of 10 cm^2, a Height (0.0001 mg/l, 1 °C, 3 days) of 7.1 cm and a Weight of root (0.0001 mg/l, 1 °C, 3 days) of 2.8 g. The Area of leaf (0.0001 mg/l, 1 °C, 6 days) was 11.2 cm^2, the Height (0.0001 mg/l, 1 °C, 6 days) was 7.2 cm and the Weight of root (0.0001 mg/l, 1 °C, 6 days) was 3.1 g. It also gave an Area of leaf (0.0001 mg/l, 1 °C, 9 days) of 12.4 cm^2, a Height (0.0001 mg/l, 1 °C, 9 days) of 7.3 cm and a Weight of root (0.0001 mg/l, 1 °C, 9 days) of 3.4 g. The Area of leaf (0.0001 mg/l, 1 °C, 12 days) was 13 cm^2, the Height (0.0001 mg/l, 1 °C, 12 days) was 7.4 cm and the Number of leaf (0.0001 mg/l, 1 °C, 12 days) was 3. For the same compound, the Number of tiller (0.0001 mg/l, 1 °C, 12 days) was 3, the Weight of root (0.0001 mg/l, 1 °C, 12 days) was 3.9 g and the Area of leaf (0.0001 mg/l, 2 °C, 3 days) was 10.2 cm^2. It also gave a Height (0.0001 mg/l, 2 °C, 3 days) of 7.1 cm, a Weight of root (0.0001 mg/l, 2 °C, 3 days) of 2.8 g and an Area of leaf (0.0001 mg/l, 2 °C, 6 days) of 11.7 cm^2. The Height (0.0001 mg/l, 2 °C, 6 days) was 7.2 cm, the Weight of root (0.0001 mg/l, 2 °C, 6 days) was 3.0 g and the Area of leaf (0.0001 mg/l, 2 °C, 9 days) was 12.6 cm^2. It also gave a Height (0.0001 mg/l, 2 °C, 9 days) of 7.3 cm, a Weight of root (0.0001 mg/l, 2 °C, 9 days) of 3.2 g and an Area of leaf (0.0001 mg/l, 2 °C, 12 days) of 13 cm^2. The Height (0.0001 mg/l, 2 °C, 12 days) was 7.5 cm, the Number of leaf (0.0001 mg/l, 2 °C, 12 days) was 3 and the Number of tiller (0.0001 mg/l, 2 °C, 12 days) was 3. It also gave a Weight of root (0.0001 mg/l, 2 °C, 12 days) of 3.9 g, an Area of leaf (0.0001 mg/l, 3 °C, 3 days) of 10.4 cm^2 and a Height (0.0001 mg/l, 3 °C, 3 days) of 7.1 cm. The Weight of root (0.0001 mg/l, 3 °C, 3 days) was 2.5 g, the Area of leaf (0.0001 mg/l, 3 °C, 6 days) was 12 cm^2 and the Height (0.0001 mg/l, 3 °C, 6 days) was 7.2 cm. For the same compound, the Weight of root (0.0001 mg/l, 3 °C, 6 days) was 2.6 g, the Area of leaf (0.0001 mg/l, 3 °C, 9 days) was 12.6 cm^2 and the Height (0.0001 mg/l, 3 °C, 9 days) was 7.5 cm. The Weight of root (0.0001 mg/l, 3 °C, 9 days) was 2.9 g, the Area of leaf (0.0001 mg/l, 3 °C, 12 days) was 13.2 cm^2 and the Height (0.0001 mg/l, 3 °C, 12 days) was 7.6 cm. It also gave a Number of leaf (0.0001 mg/l, 3 °C, 12 days) of 3, a Number of tiller (0.0001 mg/l, 3 °C, 12 days) of 2 and a Weight of root (0.0001 mg/l, 3 °C, 12 days) of 2.9 g. For the same compound, the Area of leaf (0.0001 mg/l, 4 °C, 3 days) was 10.6 cm^2, the Height (0.0001 mg/l, 4 °C, 3 days) was 7.1 cm and the Weight of root (0.0001 mg/l, 4 °C, 3 days) was 2.5 g. It also gave an Area of leaf (0.0001 mg/l, 4 °C, 6 days) of 12.2 cm^2, a Height (0.0001 mg/l, 4 °C, 6 days) of 7.3 cm and a Weight of root (0.0001 mg/l, 4 °C, 6 days) of 2.6 g. It also gave an Area of leaf (0.0001 mg/l, 4 °C, 9 days) of 13 cm^2, a Height (0.0001 mg/l, 4 °C, 9 days) of 7.5 cm and a Weight of root (0.0001 mg/l, 4 °C, 9 days) of 2.9 g. For the same compound, the Area of leaf (0.0001 mg/l, 4 °C, 12 days) was 13.4 cm^2, the Height (0.0001 mg/l, 4 °C, 12 days) was 7.7 cm and the Number of leaf (0.0001 mg/l, 4 °C, 12 days) was 3. For the same compound, the Number of tiller (0.0001 mg/l, 4 °C, 12 days) was 2, the Weight of root (0.0001 mg/l, 4 °C, 12 days) was 2.9 g and the Area of leaf (0.0001 mg/l, 5 °C, 3 days) was 10.6 cm^2. It also gave a Height (0.0001 mg/l, 5 °C, 3 days) of 7.2 cm, a Weight of root (0.0001 mg/l, 5 °C, 3 days) of 2.6 g and an Area of leaf (0.0001 mg/l, 5 °C, 6 days) of 12.4 cm^2. For the same compound, the Height (0.0001 mg/l, 5 °C, 6 days) was 7.4 cm, the Weight of root (0.0001 mg/l, 5 °C, 6 days) was 2.8 g and the Area of leaf (0.0001 mg/l, 5 °C, 9 days) was 13.6 cm^2. It also gave a Height (0.0001 mg/l, 5 °C, 9 days) of 7.5 cm, a Weight of root (0.0001 mg/l, 5 °C, 9 days) of 2.9 g and an Area of leaf (0.0001 mg/l, 5 °C, 12 days) of 14 cm^2. The Height (0.0001 mg/l, 5 °C, 12 days) was 7.8 cm, the Number of leaf (0.0001 mg/l, 5 °C, 12 days) was 3 and the Number of tiller (0.0001 mg/l, 5 °C, 12 days) was 2. It also gave a Weight of root (0.0001 mg/l, 5 °C, 12 days) of 3.0 g, an Area of leaf (0.001 mg/l, 1 °C, 3 days) of 10.1 cm^2 and a Height (0.001 mg/l, 1 °C, 3 days) of 6.9 cm. It also gave a Weight of root (0.001 mg/l, 1 °C, 3 days) of 2.8 g, an Area of leaf (0.001 mg/l, 1 °C, 6 days) of 11.3 cm^2 and a Height (0.001 mg/l, 1 °C, 6 days) of 7.1 cm. The Weight of root (0.001 mg/l, 1 °C, 6 days) was 3.1 g, the Area of leaf (0.001 mg/l, 1 °C, 9 days) was 12.6 cm^2 and the Height (0.001 mg/l, 1 °C, 9 days) was 7.3 cm. It also gave a Weight of root (0.001 mg/l, 1 °C, 9 days) of 3.4 g, an Area of leaf (0.001 mg/l, 1 °C, 12 days) of 13 cm^2 and a Height (0.001 mg/l, 1 °C, 12 days) of 7.3 cm. For the same compound, the Number of leaf (0.001 mg/l, 1 °C, 12 days) was 3, the Number of tiller (0.001 mg/l, 1 °C, 12 days) was 3 and the Weight of root (0.001 mg/l, 1 °C, 12 days) was 3.9 g. For the same compound, the Area of leaf (0.001 mg/l, 2 °C, 3 days) was 10.3 cm^2, the Height (0.001 mg/l, 2 °C, 3 days) was 6.9 cm and the Weight of root (0.001 mg/l, 2 °C, 3 days) was 2.8 g.
